Measurements: patent US7144920B2, “Polyamine analogs that activate antizyme frameshifting” (MediQuest Therapeutics, Inc., priority 2002, dated 2006)
“And” between values parts separate entries of the source, which are not always exact repeats. Equal values may be shown once. Read-outs that look alike come from different tables or passages of the source.

Key:
[1] = biological target: ODC; details: read-out: Ki for ODC inhibition; cited from earlier work
[2] = tested on: antizyme frameshifting (inducible 0 to +1 AZ1 construct) in HEK-293 cells; assay: dual luciferase reporter assay for antizyme frameshifting; type: cell-based; details: for frameshift-rescue factor (FRF): % RF multiplied by inverse of rescue coefficient, HEK-293; for frameshift-rescue factor (FRF) / induction of antizyme frameshifting, comparison in words: 25 μM; for EC50: HEK-293 cells grown in 2.5 mM DFMO, 50% of maximum percent frameshifting (plateau, FIG. 3), read-out: EC50 for induction of frameshifting; for induction of antizyme frameshifting, comparison in words: HEK-293 (FIG. 1, FIG. 2)
Method: Frameshifting can be detected using a dual luciferase reporter system that measures the efficiency of antizyme translational frameshifting (Grentzmann, G. et. al., RNA 4:479–486 (1998); Howard, M. et. al., Genes to Cells 6:931–941 (2001)). Frameshifting efficiency is determined by comparing the ratio of firefly luciferase to renilla luciferase activity in cells transfected in parallel using a control vector containing a constitutive +1 frameshift (AZ-IF) that measures the in-frame translation efficiency and a vector containing the inducible 0 to +1 frameshift (AZ1) construct. In these constructs, the renilla luciferase gene is upstream of the firefly luciferase gene which are separated by a short cloning sequence containing the portions of antizyme 1 and 2 known to contain the mRNA signals for polyamine stimulated frameshifting. Using a 96-well format, this assay system gives a quantitative measure of the efficiency of the polyamines, polyamine analogs and other compounds to induce frameshifting in a cell-based bioassay. Cells must be pretreated with α-difluoromethylornithine (DFMO), an irreversible inhibitor of ODC, prior to screening to decrease the basal antizyme frameshifting levels and increase the sensitivity to polyamine or compound-mediated stimulation of antizyme frameshifting.
FIG. 1 is a tabular representation of a large number of polyamines A-S (25 μM) that were tested for their ability to induce antizyme frameshifting using the dual luciferase reporter assay. The percent relative frameshifting value (% RF) gives a comparison of the ability of a compound to induce frameshifting compared to 25 μM spermidine. The % RF was calculated as follows. The background percent frameshifting activity determined from the 2.5 mM DFMO negative control was subtracted from the percent frameshifting activity for all compounds including the spermidine control. The background corrected frameshifting activity of each compound was then divided by the background corrected frameshifting activity induced by 25 μM spermidine and multiplied by 100. The compounds were also evaluated for their ability to rescue cells from DFMO-induced growth inhibition by determining their rescue coefficient. The rescue coefficient represents the ratio of the cell growth, as measured by O.D., in the presence of the test compound with 2.5 mM DFMO to the growth in the presence of 2.5 mM DFMO alone. The frameshift-rescue factor (FRF) is a useful factor to compare the effectiveness of the various antizyme frameshifters by taking into account their potency for inducing frameshifting and ability to rescue cells from DFMO-induced growth inhibition. The FRF was calculated by multipling the % RF value by the inverse of the rescue coefficient.
Values represent percent frameshifting following transient transfection of an AZ1-IF control and the inducible 0 to +1 AZ1 plasmid construct into HEK-293 cells grown in the presence of 2.5 mM DFMO. The compounds were added to the cells after transfection and incubated overnight before assaying the next day. Each value represents triplicate measurements.
A series of compounds are screened for their ability to induce frameshifting using the dual luciferase reporter assay. HEK-293 cells are plated in white sided, clear-bottomed 96-well assay plates at 15,000 cells per well in 100 μL of medium (DMEM supplemented with 10% fetal bovine serum (Gibco), 1% penicillin, streptomycin and L-glutamine) containing 2.5 mM DFMO. The cells are incubated for 2-days at 37° C. in an atmosphere of 5% CO2. The medium is removed and the cells are then transfected with lipofectamine reagent (LifeTechnologies) using serum free DMEM. All cells are transfected overnight with 100 ng of the appropriate plasmid DNA and 0.3 μL lipofectamine in 50 μL of serum free DMEM containing 2.5 mM DFMO. The next day, 40 μL of medium is added per well containing 3.1 mM DFMO, 2.5 mM aminoguanidine and 25% FBS. […]

[3] = tested on: HEK-293 cells; assay: rescue from DFMO-induced growth inhibition; type: cell-based; details: 25 μM compound, 2.5 mM DFMO, 6 days
Method: FIG. 5 gives a comparison of the ability of antizyme frameshifters (25 μM) to rescue cells from 2.5 mM DFMO-induced growth inhibition compared to 25 μM spermidine (SPD) in a 6-day assay in HEK-293 cells. The rescue coefficient represents the ratio of cell growth, as measured by O.D., of the test compound with 2.5 mM DFMO versus 2.5 mM DFMO alone.
HEK-293 cells are plated in 96-well assay plates at 1,000 cells per well in 100 μL of medium (DMEM supplemented with 10% fetal bovine serum (Gibco), 1% penicillin, streptomycin and L-glutamine). The cells are incubated overnight at 37° C. in an atmosphere of 5% CO2. Compounds are added the next day to a final concentration of 25 μM along with 1 mM aminoguanidine (inhibits serum amine oxidase) and 2.5 mM DFMO in a final volume of 200 μL medium. The positive control contained 25 μM spermidine. The cells are allowed to incubate for 6 days before cell growth is measured by MTS/PMS dye assay (Cell Titer 96 Aqueous Non-Radioactive Cell Proliferation Assay, Promega). The rescue coefficients in FIG. 1 and FIG. 5 are expressed as the ratio of the O.D. ((compound+2.5 mM DFMO)/O.D. (2.5 mM DFMO alone)). Therefore, DFMO alone has a value of one. […] If the value is less than one, then the compound is growth inhibitory. If the value is 0, the compound is cytotoxic.

[4] = tested on: antizyme frameshifting; details: cited from earlier work
[5] = tested on: HEK-293 cells; assay: cells; type: cell-based; details: for IC50: read-out: IC50 growth inhibition
Method: Cell number was determined by MTS/PMS assay from triplicate wells.
(§1) Cells are plated in 96-well plates such that they would be in log growth for the duration of the assay. The day after plating, the polyamine analogs are added to the cells, and growth, if any, permitted to continue for six days in the presence of 1 mM AG and 1 μM SPD when appropriate. At the end of six days, cell growth is measured by MTS/PMS dye assay (Cell Titer 96 Aqueous Non-Radioactive Cell Proliferation Assay; Promega, Madison, Wis.). IC50 refers to the concentration of the polyamine analog that results in 50% of maximum cell growth inhibition.

[6] = tested on: MDA-MB-231 cells; assay: growth inhibition, MDA-MB-231; type: cell-based; details: Homo sapiens; MDA-MB-231 cells (data not shown)
Method: as §1

[7] = tested on: mouse kidney proximal tubule (MCT) cell; details: MCT cells; cited from earlier work
[8] = tested on: prostate PC-3 cells; assay: growth inhibition, PC-3; type: cell-based; details: Homo sapiens; prostate PC-3 cells (data not shown)
Method: as §1

[9] = tested on: HEK-293 cells; assay: depletion of intracellular polyamine levels (HPLC) and cell growth; type: cell-based
Method: FIG. 6 is a graph showing the effect of a 6-day incubation of compound A on HEK-293 cellular polyamine levels and cell growth. All flasks received 1 mM aminoguanidine. Cells were washed, counted, lysed in perchloric acid, dansylated and polyamine levels determined by HPLC. Each value represents the average of triplicate values with the error bars representing standard deviation.
FIG. 7 illustrates the effect of extracellular compound A on the intracellular concentration of compound A in HEK-293 cells as determined by HPLC. Cells were prepared as in FIG. 6. Peak area was normalized by dividing the peak area of the compound divided by the peak area of the internal standard, diaminoheptane. Values represent at least triplicate measurements with the error bars representing standard deviation.
Compound A is further evaluated to determine if it depletes intracellular polyamine levels in HEK-293 cells in a dose-dependent fashion (FIG. 6). HEK-293 cells are plated in 75 cm^2 flasks at 300,000 cells/mL to insure they would be in log growth for the duration of the experiment. After overnight incubation at 37° C. in an atmosphere of 5% CO2, compound A is added along with 1 mM aminoguanidine. The flasks are then incubated for 6 days at 37° C. in an atmosphere of 5% CO2. The cells are harvested by washing twice with ice-cold 1×PBS, trypsinized, counted, and lysed in 0.4 N perchloric acid. Diaminoheptane is used in all dansylation reactions as an internal standard. Peak area is normalized by dividing the peak area of the compound divided by the peak area of the internal standard. The HPLC method for the fluorometric detection of polyamines from the cell extracts is based on the procedure by Kabra (Kabra, P. M. et. al. J. Chromatogr. 380:19–32 (1986)).

Compound: NC/C=C/CN [1,4-diamino-trans-2-butene]
- Ki [1]: 2 µM

Compound: Nc1ccc(N)cc1 [1,4-phenylenediamine]
- Ki [1]: 46 µM

Compound: NCCCN(CCCN)Cc1ccc(CN(CCCN)CCCN)cc1 [Compound S]
- percent relative frameshifting (% RF) ([2]; 25 μM compound, relative to 25 μM spermidine): 100%
- ability to rescue cells from DFMO-induced growth inhibition [3]: no ability to rescue

Compound: N=C(N)NCCCCN [agmatine]
- frameshift-rescue factor (FRF) [2]: 17
- concentration of maximum frameshifting efficiency [4]: 4 mM
- ability to rescue cells from DFMO-induced growth inhibition [3]: somewhat better than either A or B in rescuing cells
- IC50 ([5]; Homo sapiens, HEK293, HEK-293 cells (data not shown)): ~210 µM
- IC50 [6]: ~2000 µM
- concentration of maximum growth inhibition [7]: ≤ 1 mM
- IC50 [8]: ~5000 µM

Compound: NCCCCN [putrescine, reference compound]
- EC50 ([2]; Homo sapiens, HEK293): 0.95 µM

Compound: NCCCCNCCCN [spermidine, reference compound]
- EC50 ([2]; Homo sapiens, HEK293): 0.56 µM

Compound: NCCCNCCCCNCCCN [spermine, reference compound]
- EC50 ([2]; Homo sapiens, HEK293): 0.68 µM

Compound: N-(3-aminopropyl)-xylylenediamin [Compound A]
- cell growth decrease ([9]; 10 μM compound A, 6 days): 32%
- spermidine levels down by ([9]; 10 μM compound A, 6 days): about 90%
- cell growth decrease ([9]; 30 μM compound A, 6 days): 38.5%
- intracellular spermidine level ([9]; 100 μM compound A, 6 days): non-detectable
- spermine levels reduced by ([9]; 100 μM compound A, 6 days): 50%
- spermine levels, of normal ([9]; compound A levels above 30 μM): approximately 50%
- intracellular putrescine level ([9]; lowest concentration of compound A tested, 6 days): non-detectable
- induction of antizyme frameshifting, comparison in words [2]: more potent than agmatine
- frameshift-rescue factor (FRF) [2]: 120
- EC50 [2]: ~120 µM
- ability to rescue cells from DFMO-induced growth inhibition [3]: neither compound A nor B significantly rescue cells
- IC50 ([5]; HEK-293, 6 days, 1 mM aminoguanidine): ~60 µM and 60 µM
- compound A concentrations at which 1 μM spermidine rescued cells from growth inhibition ([5]; HEK-293, 6 days, with 1 μM spermidine): 3 to 100 µM

Compound: N-(4-amino-1-butane-N-(3-aminopropyl-)-xylylenediamine [Compound B]
- induction of antizyme frameshifting, comparison in words [2]: more potent than agmatine
- frameshift-rescue factor (FRF) [2]: 83
- ability to rescue cells from DFMO-induced growth inhibition [3]: neither compound A nor B significantly rescue cells
